Data on three compounds can be found in ChEMBL document CHEMBL1201862, “PubChem BioAssay data set” (2004).

A word on the IC50: it is the concentration that inhibits the measured activity by half.

Activity calls are given as the source filed them. No stated cut-off is given here; in the data, actives have a measured IC50 and inactives only a lower limit.

Chain of Envelope glycoprotein gp160 (Q6QLK5 whole entry, the tested form may be a part): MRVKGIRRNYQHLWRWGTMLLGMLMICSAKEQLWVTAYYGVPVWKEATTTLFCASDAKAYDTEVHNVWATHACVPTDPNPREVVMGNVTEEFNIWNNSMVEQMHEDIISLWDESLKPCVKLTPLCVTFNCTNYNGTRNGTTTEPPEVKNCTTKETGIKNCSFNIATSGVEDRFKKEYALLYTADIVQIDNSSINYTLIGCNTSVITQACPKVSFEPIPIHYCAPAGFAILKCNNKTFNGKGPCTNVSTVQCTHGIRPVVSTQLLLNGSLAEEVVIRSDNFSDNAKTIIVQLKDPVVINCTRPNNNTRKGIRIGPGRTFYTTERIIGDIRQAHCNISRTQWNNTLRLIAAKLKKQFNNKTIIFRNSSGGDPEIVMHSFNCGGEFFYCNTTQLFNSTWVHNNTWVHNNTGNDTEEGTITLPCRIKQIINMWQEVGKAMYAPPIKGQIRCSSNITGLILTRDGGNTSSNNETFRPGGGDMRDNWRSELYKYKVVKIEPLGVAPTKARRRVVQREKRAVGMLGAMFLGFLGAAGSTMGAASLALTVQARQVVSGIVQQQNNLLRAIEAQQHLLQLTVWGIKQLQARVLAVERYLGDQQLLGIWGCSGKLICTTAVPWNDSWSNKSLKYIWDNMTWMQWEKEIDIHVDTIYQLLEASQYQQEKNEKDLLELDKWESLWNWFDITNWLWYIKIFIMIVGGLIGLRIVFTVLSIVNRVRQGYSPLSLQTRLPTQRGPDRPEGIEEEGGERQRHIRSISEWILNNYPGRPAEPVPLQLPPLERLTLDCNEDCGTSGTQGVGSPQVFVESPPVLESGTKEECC

The experiment has as its target Envelope glycoprotein gp160 (Human immunodeficiency virus 1, UniProt Q6QLK5). The experiment is described as follows: inhibitors of HIV fusion peptide binding, primary screen, biochemical, uHTS, fluorescence dequenching (AID 1986).
As for `O=C1NN(c2ccc(Cl)cc2)C(=O)/C1=C\c1ccc(-c2cccc(C(=O)O)c2)o1`, the half-maximal inhibitory concentration (IC50) was 11.9 µM (active). Consider `N#Cc1c(O)nc(SCC(=O)N2c3ccccc3Sc3ccccc32)nc1-c1ccccc1`, for which the half-inhibitory concentration (IC50) is 13.1 µM (active).

`COc1ccc(OC)c(N2C(=O)/C(=C/c3ccco3)C(=O)NC2=S)c1`: the half-inhibitory concentration (IC50) is 12.6 µM (active).
